Where two headings read alike, the source gives them in different places. Starred links: 1 amine or outer side, 2 acyl side, 3 side chain; linkers in the order of their positions; H or OH if unused. Positions of bridges follow the written chain, without caps; N, C: chain ends. Non-standard residues stand in square brackets, D forms with d. Residues, ends and D or L forms follow the SMILES beside them. No end group written: not given here. *: point of attachment. hTyr(3S-OH,4S-OH,3'-OSO3H) = N[C@H](C(=O)O)[C@H](O)[C@@H](O)c1ccc(O)c(OS(=O)(=O)O)c1; pTerphenylCO(4''-OnC5H11) = CCCCCOc1ccc(-c2ccc(-c3ccc(C(=O)*)cc3)cc2)cc1; Orn(4R-OH,5R-OH) = O=C([C@H](C[C@@H](O)[C@@H](O)N[*:3])N[*:1])[*:2]; hTyr(3S-OH,4S-OH) = N[C@H](C(=O)O)[C@H](O)[C@@H](O)c1ccc(O)cc1; Pro(3S-OH,4S-Me) = C[C@H]1CN[C@H](C(=O)O)[C@H]1O; X1 = CCCCCOc1ccc(-c2cc(-c3ccc(C(=O)*)cc3)no2)cc1; Gln(3R-OH) = NC(=O)C[C@@H](O)[C@H](N)C(=O)O; Hyp = O=C(O)[C@@H]1C[C@@H](O)CN1
How the values were obtained:
[1] = tested on: C. albicans (ATCC10231, ATCC90028, ATCC90029); parameters: key: R: resistant; S: susceptible; DD-S: Dose dependent-susceptible; details: ref ATCC; cited from earlier work
Excerpt: […] T h re e times each experiment was repeated independently with similar results. Representative images are shown. (1 picture or pasted object on this page, not shown here)

E. coli (CMCC(B)44102) = test: Antibacterial activity, colony counting; format: cell-based, Escherichia coli
Protocol: (§1) The antibacterial effects of Ni-IH-7 were also evaluated with E. coli (CMCC(B)44102), S. aureus (ATCC 29213) and Methicillin-resistant Staphylococcus aureus (MRSA) (ATCC43300), G. vaginalis (ATCC14018) and metronidazole-resistant G. vaginalis (provided by Xishan People’s Hospital of Wuxi City) under the similar procedures as those for C. albicans. Initially, E. coli, S. aureus and MRSA stored at -80°C were thawed and inoculated into Luria-Bertani liquid culture medium for overnight shaking. The culture volume was 5 mL, and the incubation conditions were set at 37°C in an air incubator. The next day, E. coli, S. aureus and MRSA were transferred to fresh culture medium and incubated for 2 h to activate the bacteria. The inoculum was approximately 10^5-6 CFU mL^−1. The culture volume was 10 mL, and the conditions were maintained at 37 °C in an air incubator. The quantities of E. coli, S. aureus and MRSA could reach 10^7-8 CFU mL^−1. Mixtures of 100 µL of E. coli, S. aureus and MRSA with 100 µL of Ni-IH-7 solution were prepared in 800 µL of sterile water and incubated for 0–6 h. Subsequently, 100 µL of different dilutions of the mixture were evenly spread on Luria-Bertani agar plates, followed by incubation at 37 °C from 24 to 48 h, and colony counting assay was performed to determine antibacterial efficiency. Similarly, G. vaginalis stored at −80°C was thawed and inoculated into brain-heart infusion (BHI) medium. This BHI medium consisted of brain/heart infusion broth containing 1% gelatin, 1% yeast extract, 0.1% soluble starch, 0.1% glucose, and 10% fetal bovine serum, and the inoculation process occurred overnight. The volume of the medium used was 5 mL, and the incubation condition was set at 37 °C in an incubator with 5% CO2. Following an overnight incubation post-inoculation, the necessary amount of bacterial solution was taken and transferred into fresh medium at a ratio of 1:25. This fresh medium was then cultured at 37°C with 5% CO2 for 6–8 h until the OD600 reached approximately 0.5. Next, an appropriate quantity of the bacterial inoculum was centrifuged at 4300 × g for 5 min at 4 °C to replace the bacteria from the culture medium with an equivalent volume of sterile water. For the experimental setup, 100 µL of G. vaginalis was mixed with 900 µL of sterile water as the control group. In the experimental group, 100 µL of G. vaginalis was mixed with either Ni-IH-7 solutions, Ni(Ac)2, or metronidazole in 800 µL of sterile water. The colony counting assay was performed to determine antibacterial efficiency.

[2] = PLC-like activity (PLC activity Assay Kit); format: biochemical
Protocol: To detect POD-like activity, 140 µL of sodium acetate buffer (pH 4.5, 0.2 M), 20 µL of 10 mM TMB, 20 µL of 1.5 mM Ni-IH-7 or 1.5 mM 4H2O·Ni(Ac)2, and 20 µL of H2O2 (50 mM) were added in order and reacted for 2 h at 37 °C. Absorbance at 652 nm was monitored using a microplate reader. PLC activity Assay Kit was used to detect PLC-like activity.

S. aureus (ATCC 29213) = test: Antibacterial activity, colony counting; format: cell-based, Staphylococcus aureus
Protocol: as §1

G. vaginalis (ATCC14018) = test: Antibacterial activity, colony counting; format: cell-based, Gardnerella vaginalis
Protocol: as §1

[3] = Variable temperature circular dichroism; format: physicochemical
Protocol: The Ultraviolet-visible (UV-VIS) spectroscopy of samples were collected by a Shimadzu UV-3600. For FTIR, 3 mg of powdered sample and 50 mg of potassium bromide (KBr) were mixed for tablet compression analysis with transmittance at 400–4000 cm^−1, collected using an iS10 FTIR spectrometer (USA). Measurements were performed by averaging 32 scans at 4-cm^−1 resolution (signal-to-noise ratio (S/N) = 50,000). The single-molecule STM imaging experiments were performed under ambient conditions by using a Nanoscope IIIa SPM system (Bruker, USA). 10 μL of the peptide solution was incubated on the surface of freshly cleaved highly oriented pyrolytic graphite (HOPG) at room temperature for 20 min. Then the excess peptide solution was removed from the substrate surface. The STM tips were mechanically made by Ir/Pt wires (20/80). Different STM tips and samples were used in these imaging experiments to ensure reproducibility. […] Zeta potentials of samples were determined using a Zetasizer Nano ZS90 (England) via three tests in a 1-mL sample cell. All CD datum were collected using Chirascan Plus (England) and analyzed at 190-260 nm. […] Pyridine infrared (IR) were measured at 1400–1700 cm^−1 using Thermo Scientific Nicolet 380 (USA). […] The fluorescence signals (I374nm, I394nm) were collected for detecting CMC using the pyrene probe under excitation at 330 nm across various concentrations of peptides.

[4] = 25 μg mL-1, in sterile water, replicate 1 of n = 3
[5] = 25 μg mL-1, in sterile water, replicate 2 of n = 3
[6] = 25 μg mL-1, in sterile water, replicate 3 of n = 3
[7] = 50 μg mL-1, in sterile water, replicate 1 of n = 3
[8] = 50 μg mL-1, in sterile water, replicate 2 of n = 3
[9] = 50 μg mL-1, in sterile water, replicate 3 of n = 3
[10] = 100 μg mL-1, in sterile water, replicate 1 of n = 3
[11] = 100 μg mL-1, in sterile water, replicate 2 of n = 3
[12] = 100 μg mL-1, in sterile water, replicate 3 of n = 3

Nc1nc(=O)[nH]cc1F [5-Flucytosine]
resistance degree of C. albicans ATCC 10231 [1]: S
resistance degree of C. albicans ATCC 90028 [1]: S
resistance degree of C. albicans ATCC 90029 [1]: R

CCCCCOc1ccc(-c2ccc(-c3ccc(C(=O)N[C@H]4C[C@@H](O)[C@@H](O)NC(=O)[C@@H]5[C@@H](O)[C@@H](C)CN5C(=O)[C@H]([C@@H](C)O)NC(=O)[C@H]([C@H](O)[C@@H](O)c5ccc(O)cc5)NC(=O)[C@@H]5C[C@@H](O)CN5C(=O)[C@H]([C@@H](C)O)NC4=O)cc3)cc2)cc1 [Anidulafungin] ({pTerphenylCO(4''-OnC5H11)}-[Orn(4R-OH,5R-OH)]T[Hyp][hTyr(3S-OH,4S-OH)]T[Pro(3S-OH,4S-Me)]; lactam 1-C)
resistance degree of C. albicans ATCC 10231 [1]: R
resistance degree of C. albicans ATCC 90028 [1]: S
resistance degree of C. albicans ATCC 90029 [1]: S

CC[C@H](C)C[C@H](C)CCCCCCCCC(=O)N[C@H]1C[C@@H](O)[C@@H](NCCN)NC(=O)[C@@H]2[C@@H](O)CCN2C(=O)[C@H]([C@H](O)CCN)NC(=O)[C@H]([C@H](O)[C@@H](O)c2ccc(O)cc2)NC(=O)[C@@H]2C[C@@H](O)CN2C(=O)[C@H]([C@@H](C)O)NC1=O [Caspofungin]
resistance degree of C. albicans ATCC 10231 [1]: S
resistance degree of C. albicans ATCC 90028 [1]: S
resistance degree of C. albicans ATCC 90029 [1]: S

OC(Cn1cncn1)(Cn1cncn1)c1ccc(F)cc1F [Fluconazole]
resistance degree of C. albicans ATCC 10231 [1]: R
resistance degree of C. albicans ATCC 90028 [1]: S
resistance degree of C. albicans ATCC 90029 [1]: S

CCC(C)n1ncn(-c2ccc(N3CCN(c4ccc(OCC5COC(Cn6cncn6)(c6ccc(Cl)cc6Cl)O5)cc4)CC3)cc2)c1=O (centres unmarked) [Itraconazole]
resistance degree of C. albicans ATCC 10231 [1]: R
resistance degree of C. albicans ATCC 90028 [1]: DD-S
resistance degree of C. albicans ATCC 90029 [1]: S

CCCCCOc1ccc(-c2cc(-c3ccc(C(=O)N[C@H]4C[C@@H](O)[C@@H](O)NC(=O)[C@@H]5[C@@H](O)[C@@H](C)CN5C(=O)[C@H]([C@H](O)CC(N)=O)NC(=O)[C@H]([C@H](O)[C@@H](O)c5ccc(O)c(OS(=O)(=O)O)c5)NC(=O)[C@@H]5C[C@@H](O)CN5C(=O)[C@H]([C@@H](C)O)NC4=O)cc3)no2)cc1 [Micafungin] (X1-[Orn(4R-OH,5R-OH)]T[Hyp][hTyr(3S-OH,4S-OH,3'-OSO3H)][Gln(3R-OH)][Pro(3S-OH,4S-Me)]; lactam 1-C)
resistance degree of C. albicans ATCC 10231 [1]: S
resistance degree of C. albicans ATCC 90028 [1]: S
resistance degree of C. albicans ATCC 90029 [1]: S

CC(=O)[O-].CC(=O)[O-].O.O.O.O.[Ni+2] [Ni2+, nickel acetate]
Antimicrobial activity toward E. coli (Figure 7a) (E. coli (CMCC(B)44102); [4]): 6.041
Antimicrobial activity toward E. coli (Figure 7a) (E. coli (CMCC(B)44102); [5]): 6.4456
Antimicrobial activity toward E. coli (Figure 7a) (E. coli (CMCC(B)44102); [6]): 6.497
Antimicrobial activity toward E. coli (Figure 7a) (E. coli (CMCC(B)44102); [7]): 5.633
Antimicrobial activity toward E. coli (Figure 7a) (E. coli (CMCC(B)44102); [8]): 6.487
Antimicrobial activity toward E. coli (Figure 7a) (E. coli (CMCC(B)44102); [9]): 6.525
Antimicrobial activity toward E. coli (Figure 7a) (E. coli (CMCC(B)44102); [10]): 5.929
Antimicrobial activity toward E. coli (Figure 7a) (E. coli (CMCC(B)44102); [11]): 6.479
Antimicrobial activity toward E. coli (Figure 7a) (E. coli (CMCC(B)44102); [12]): 6.497
PLC-like activity (Figure 5d) ([2]; replicate 1 of n = 3): 0.0001855
PLC-like activity (Figure 5d) ([2]; replicate 2 of n = 3): 0.002181
PLC-like activity (Figure 5d) ([2]; replicate 3 of n = 3): 0.003085
Antimicrobial activity toward S. aureus (Figure 7b) (S. aureus (ATCC 29213); [4]): 7.5682
Antimicrobial activity toward S. aureus (Figure 7b) (S. aureus (ATCC 29213); [5]): 6.875
Antimicrobial activity toward S. aureus (Figure 7b) (S. aureus (ATCC 29213); [6]): 7.049
Antimicrobial activity toward S. aureus (Figure 7b) (S. aureus (ATCC 29213); [7]): 7.146
Antimicrobial activity toward S. aureus (Figure 7b) (S. aureus (ATCC 29213); [8]): 6.498
Antimicrobial activity toward S. aureus (Figure 7b) (S. aureus (ATCC 29213); [9]): 7.364
Antimicrobial activity toward S. aureus (Figure 7b) (S. aureus (ATCC 29213); [10]): 6.991
Antimicrobial activity toward S. aureus (Figure 7b) (S. aureus (ATCC 29213); [11]): 7.161
Antimicrobial activity toward S. aureus (Figure 7b) (S. aureus (ATCC 29213); [12]): 7.352
Antimicrobial activity toward G. vaginalis (Figure 7c) (G. vaginalis (ATCC14018); 10 μg mL-1, in sterile water, replicate 1 of n = 3): 5.431
Antimicrobial activity toward G. vaginalis (Figure 7c) (G. vaginalis (ATCC14018); 10 μg mL-1, in sterile water, replicate 2 of n = 3): 5.477
Antimicrobial activity toward G. vaginalis (Figure 7c) (G. vaginalis (ATCC14018); 10 μg mL-1, in sterile water, replicate 3 of n = 3): 5.4624
Antimicrobial activity toward G. vaginalis (Figure 7c) (G. vaginalis (ATCC14018); [7]): 5.826
Antimicrobial activity toward G. vaginalis (Figure 7c) (G. vaginalis (ATCC14018); [8]): 5.602
Antimicrobial activity toward G. vaginalis (Figure 7c) (G. vaginalis (ATCC14018); [9]): 5.74
Antimicrobial activity toward G. vaginalis (Figure 7c) (G. vaginalis (ATCC14018); [10]): 5.13
Antimicrobial activity toward G. vaginalis (Figure 7c) (G. vaginalis (ATCC14018); [11]): 5.041
Antimicrobial activity toward G. vaginalis (Figure 7c) (G. vaginalis (ATCC14018); [12]): 5.1038

C[C@@H](c1ncncc1F)[C@](O)(Cn1cncn1)c1ccc(F)cc1F [Voriconazole]
resistance degree of C. albicans ATCC 10231 [1]: S
resistance degree of C. albicans ATCC 90028 [1]: S
resistance degree of C. albicans ATCC 90029 [1]: S

IHIHICI [IH-7]
thermal stability of conformation ([3]; variable temperature CD, 20–95 °C): changed from random coil at low temperature to α-helix at high temperature

IHIHICI [Ni-IH-7]
resistance to enzymatic degradation by neutral protease (neutral protease): considerable resistance to enzymatic degradation
thermal stability of conformation [3]: retained β-sheet conformation
resistance to enzymatic degradation by snailase (snailase): considerable resistance to enzymatic degradation
resistance to enzymatic degradation by lyticase (lyticase): considerable resistance to enzymatic degradation
